# Measurements as given in ChEMBL document CHEMBL5576125, “Discovery of Pyrazolopyrazines as Selective, Potent, and Mutant-Active MET Inhibitors with Intracranial Efficacy” (J Med Chem, 2024).
# Calls of active or inactive are those of the source. The calls are words filed in the database; no cut-off is given here.
# What was measured:
# [1] = biological target: T1, Hepatocyte growth factor receptor (Homo sapiens, UniProt P08581, D1228N); experiment: Displacement of tracer 236 from N-terminal GST-tagged recombinant human MET D1228N mutant (956 to end residues) expressed in Sf9 insect cells incubated for 1 hr by TR-FRET assay
# T1 sequence (P08581 25-1390 D1228N limits assumed): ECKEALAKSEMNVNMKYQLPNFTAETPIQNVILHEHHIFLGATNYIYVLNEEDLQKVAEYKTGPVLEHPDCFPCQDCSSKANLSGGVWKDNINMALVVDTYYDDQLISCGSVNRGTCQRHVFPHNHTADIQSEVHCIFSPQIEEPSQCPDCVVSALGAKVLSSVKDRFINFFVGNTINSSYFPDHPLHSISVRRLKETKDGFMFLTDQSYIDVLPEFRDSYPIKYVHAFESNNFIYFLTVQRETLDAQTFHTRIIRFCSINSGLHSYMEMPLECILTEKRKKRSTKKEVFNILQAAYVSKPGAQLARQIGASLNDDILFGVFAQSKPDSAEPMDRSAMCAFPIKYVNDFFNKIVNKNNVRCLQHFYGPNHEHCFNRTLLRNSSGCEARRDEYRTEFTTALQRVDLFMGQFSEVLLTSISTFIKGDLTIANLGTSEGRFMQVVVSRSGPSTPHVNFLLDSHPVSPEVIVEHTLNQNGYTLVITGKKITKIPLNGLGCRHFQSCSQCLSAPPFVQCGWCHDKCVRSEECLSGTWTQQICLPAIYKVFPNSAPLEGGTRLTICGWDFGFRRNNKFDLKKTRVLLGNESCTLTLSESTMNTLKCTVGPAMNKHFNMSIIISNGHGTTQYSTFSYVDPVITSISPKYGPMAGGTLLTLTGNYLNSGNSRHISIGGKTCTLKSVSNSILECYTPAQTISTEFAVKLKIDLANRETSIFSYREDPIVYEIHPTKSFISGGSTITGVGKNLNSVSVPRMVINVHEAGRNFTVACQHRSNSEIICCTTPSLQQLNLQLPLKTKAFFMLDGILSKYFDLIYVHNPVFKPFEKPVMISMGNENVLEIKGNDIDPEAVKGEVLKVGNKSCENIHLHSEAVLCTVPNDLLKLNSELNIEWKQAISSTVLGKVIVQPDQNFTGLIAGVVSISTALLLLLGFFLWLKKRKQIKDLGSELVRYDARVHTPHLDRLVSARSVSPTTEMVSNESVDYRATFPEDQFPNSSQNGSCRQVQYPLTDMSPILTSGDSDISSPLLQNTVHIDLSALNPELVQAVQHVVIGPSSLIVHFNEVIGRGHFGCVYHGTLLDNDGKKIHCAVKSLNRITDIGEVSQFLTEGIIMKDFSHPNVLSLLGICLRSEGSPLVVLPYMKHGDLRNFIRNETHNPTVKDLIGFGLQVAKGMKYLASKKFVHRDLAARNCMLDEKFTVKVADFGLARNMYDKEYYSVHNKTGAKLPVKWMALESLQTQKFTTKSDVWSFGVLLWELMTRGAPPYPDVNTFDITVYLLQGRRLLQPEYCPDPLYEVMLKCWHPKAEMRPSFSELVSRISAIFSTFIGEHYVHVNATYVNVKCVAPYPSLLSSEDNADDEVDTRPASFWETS
# [2] = Displacement of tracer 236 from N-terminal GST-tagged recombinant human MET exon 14 deletion mutant (956 to end residues) expressed in Sf9 insect cells incubated for 1 hr by TR-FRET assay
# [3] = biological target: Hepatocyte growth factor receptor (Homo sapiens, UniProt P08581, F1200I); experiment: Displacement of tracer 236 from N-terminal GST-tagged recombinant human MET F1200I mutant (956 to end residues) expressed in Sf9 insect cells incubated for 1 hr by TR-FRET assay
# [4] = Displacement of tracer 236 from N-terminal GST-tagged recombinant human MET […] mutant (956 to end residues) expressed in Sf9 insect cells incubated for 1 hr by TR-FRET assay
# [5] = biological target: Hepatocyte growth factor receptor (Homo sapiens, UniProt P08581, Y1230H); experiment: Displacement of tracer 236 from N-terminal GST-tagged recombinant human MET Y1230H mutant (956 to end residues) expressed in Sf9 insect cells incubated for 1 hr by TR-FRET assay
# [6] = biological target: T1, Hepatocyte growth factor receptor; experiment: Inhibition of MET D1228N mutant (unknown origin) transfected in mouse NIH3T3 cells incubated for 1 hr by In-Cell Western assay; type: cell-based
# [7] = Apparent permeability across apical to basolateral side in MDCKII-MDR1 cells at 1 uM incubated for 2 hrs in orbital shaker by LC-MS/MS analysis; type: ADME, cell-based, Canis lupus familiaris; conditions: dog, MDCK-MDR1
# [8] = Metabolic stability in human hepatocytes assessed as clearance at 2 uM measured upto 120 mins by LC-MS/MS analysis; type: ADME, cell-based, Hepatocyte
# [9] = Metabolic stability in mouse hepatocytes assessed as clearance at 2 uM measured upto 120 mins by LC-MS/MS analysis; type: ADME, cell-based, Hepatocyte
# [10] = Efflux ratio of apparent permeability across basolateral to apical over apical to basolateral side in MDCKII-MDR1 cells at 1 uM incubated for 2 hrs in orbital shaker by LC-MS/MS analysis; type: ADME, cell-based, Canis lupus familiaris; conditions: dog, MDCK-MDR1
# [11] = biological target: Macrophage-stimulating protein receptor (Homo sapiens) (UniProt Q04912); experiment: Inhibition of human RON incubated for 5 mins in presence of ATP by chelation-enhanced fluorescence based Beckman Coulter analysis relative to control
# Chain of Macrophage-stimulating protein receptor (Homo sapiens) (Q04912 25-304 limits assumed): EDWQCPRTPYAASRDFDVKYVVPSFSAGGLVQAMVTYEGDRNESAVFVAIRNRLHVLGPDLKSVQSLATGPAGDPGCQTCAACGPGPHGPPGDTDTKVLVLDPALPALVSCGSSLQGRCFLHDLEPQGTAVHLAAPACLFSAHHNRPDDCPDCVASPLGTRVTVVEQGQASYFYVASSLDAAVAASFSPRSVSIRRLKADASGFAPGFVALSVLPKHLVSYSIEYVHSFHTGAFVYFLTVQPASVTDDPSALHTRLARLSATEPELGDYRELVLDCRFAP
# Chain of Macrophage-stimulating protein receptor (Homo sapiens) (Q04912 310-1400 limits assumed): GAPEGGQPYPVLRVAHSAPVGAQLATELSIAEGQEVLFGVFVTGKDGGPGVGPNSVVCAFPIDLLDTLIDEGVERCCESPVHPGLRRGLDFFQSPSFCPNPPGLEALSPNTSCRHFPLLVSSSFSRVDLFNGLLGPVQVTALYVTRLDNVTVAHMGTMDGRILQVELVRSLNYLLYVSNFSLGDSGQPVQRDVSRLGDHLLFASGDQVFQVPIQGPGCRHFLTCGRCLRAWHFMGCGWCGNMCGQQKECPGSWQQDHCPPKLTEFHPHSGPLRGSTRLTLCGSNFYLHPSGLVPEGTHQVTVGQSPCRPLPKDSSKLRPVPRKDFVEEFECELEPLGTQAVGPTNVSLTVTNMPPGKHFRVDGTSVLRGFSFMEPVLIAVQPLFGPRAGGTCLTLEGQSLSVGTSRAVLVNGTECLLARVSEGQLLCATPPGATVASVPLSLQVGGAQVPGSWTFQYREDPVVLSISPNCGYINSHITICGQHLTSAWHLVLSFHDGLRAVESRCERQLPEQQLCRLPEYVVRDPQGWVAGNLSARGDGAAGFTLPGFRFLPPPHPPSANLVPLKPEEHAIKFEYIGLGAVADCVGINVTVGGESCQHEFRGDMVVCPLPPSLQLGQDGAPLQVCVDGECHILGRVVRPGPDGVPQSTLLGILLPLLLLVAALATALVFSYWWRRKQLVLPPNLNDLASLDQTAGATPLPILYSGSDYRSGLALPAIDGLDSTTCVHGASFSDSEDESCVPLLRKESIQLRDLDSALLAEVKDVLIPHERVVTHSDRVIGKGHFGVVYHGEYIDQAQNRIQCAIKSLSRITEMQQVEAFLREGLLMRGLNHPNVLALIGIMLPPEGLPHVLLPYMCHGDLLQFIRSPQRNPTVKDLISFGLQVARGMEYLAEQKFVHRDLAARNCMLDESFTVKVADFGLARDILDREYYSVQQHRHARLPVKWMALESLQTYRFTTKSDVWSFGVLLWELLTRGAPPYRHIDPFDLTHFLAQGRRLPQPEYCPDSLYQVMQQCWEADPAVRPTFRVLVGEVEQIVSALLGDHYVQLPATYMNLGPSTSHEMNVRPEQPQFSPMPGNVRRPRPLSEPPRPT
# [12] = Clearance in female athymic nude Foxn1nu mouse at 1 mg/kg, iv administered as single dose and measured after 24 hrs by LC/MS analysis; type: ADME, organism-based; conditions: in vivo
# [13] = Hepatic extraction ratio in female athymic nude Foxn1nu mouse at 1 mg/kg, iv administered as single dose and measured after 24 hrs by LC/MS analysis; type: ADME, organism-based; conditions: in vivo, read-out: ERH
# [14] = Half life in female athymic nude Foxn1nu mouse at 1 mg/kg, iv administered as single dose and measured after 24 hrs by LC/MS analysis; type: ADME, organism-based; conditions: in vivo
# [15] = Volume of distribution at steady state in female athymic nude Foxn1nu mouse at 1 mg/kg, iv administered as single dose and measured after 24 hrs by LC/MS analysis; type: ADME, organism-based; conditions: in vivo, read-out: Vdss
# [16] = Cmax in female athymic nude Foxn1nu mouse plasma at 30 mg/kg, po administered as single dose and measured after 24 hrs by LC/MS analysis; type: ADME, organism-based
# [17] = Cmax in female athymic nude Foxn1nu mouse brain at 30 mg/kg, po administered as single dose and measured after 24 hrs by LC/MS analysis; type: ADME, organism-based; conditions: in vivo
# [18] = Tmax in female athymic nude Foxn1nu mouse at 30 mg/kg, po administered as single dose and measured after 24 hrs by LC/MS analysis; type: ADME, organism-based; conditions: in vivo
# [19] = AUCinfinity in female athymic nude Foxn1nu mouse at 30 mg/kg, po administered as single dose and measured after 24 hrs by LC/MS analysis; type: ADME, organism-based; conditions: in vivo
# [20] = Ratio of unbound drug concentration in female athymic nude Foxn1nu mouse brain to plasma at 30 mg/kg, po administered as single dose and measured after 24 hrs by LC/MS analysis; type: ADME, organism-based; conditions: read-out: K(p,uu,brain)
# [21] = test system: Cytochrome P450; experiment: Inhibition of CYP450 (unknown origin); type: ADME, protein assay; conditions: human
# [22] = In vivo inhibition of MET in female athymic nude Foxn1nu mouse implanted with mouse NIH3T3 cells expressing luciferase and human MET exon 14 deletion construct with MET-D1228N Type I resistance mutation assessed as reduction in phospho-MET protein level in tumor by measuring residual activity at 30 to 100 mg/kg, po administered as single dose measured after 12 hrs by ELISA relative to control; type: functional; conditions: dose 30-100 mg/kg
# [23] = test system: Mus musculus; experiment: In vivo inhibition of MET in female athymic nude Foxn1nu mouse xenografted with human Hs746T cells expressing MET exon 14 skipping mutation with MET amplification assessed as reduction in phospho-MET protein level in tumor at 3 to 100 mg/kg, po administered as single dose measured after 2 to 8 hrs by ELISA relative to control; type: functional, organism-based; conditions: dose 3-100 mg/kg, time 2-8 hrs
# [24] = test system: NIH3T3; experiment: Antitumor activity against mouse NIH3T3 cells expressing luciferase and human MET exon 14 deletion construct with MET-D1228N Type I resistance mutation implanted in female athymic nude Foxn1nu mouse assessed as reduction in tumor burden at 30 mg/kg, po bid measured after 29 days by luminescent imaging based analysis; type: functional, organism-based; conditions: time 29.0 day
# [25] = test system: NIH3T3; experiment: Antitumor activity against mouse NIH3T3 cells expressing luciferase and human MET exon 14 deletion construct with MET-D1228N Type I resistance mutation implanted in female athymic nude Foxn1nu mouse assessed as reduction in tumor burden at 100 mg/kg, po qd measured after 29 days by luminescent imaging based analysis; type: functional, organism-based; conditions: time 29.0 day
# [26] = test system: NIH3T3; experiment: Antitumor activity against mouse NIH3T3 cells expressing luciferase and human MET exon 14 deletion construct with MET-D1228N Type I resistance mutation implanted in female athymic nude Foxn1nu mouse assessed as median survival time at 30 mg/kg, po bid measured after 29 days (reference value: 15.5 day); type: functional; conditions: time 29 day
# [27] = test system: NIH3T3; experiment: Antitumor activity against mouse NIH3T3 cells expressing luciferase and human MET exon 14 deletion construct with MET-D1228N Type I resistance mutation implanted in female athymic nude Foxn1nu mouse assessed as animal survival rate at 100 mg/kg, po qd measured until 80 days relative to control; type: functional; conditions: NIH3T3, 1920 h, time 80 day
# [28] = test system: Hs746T; experiment: Antitumor activity against human Hs746T cells expressing MET exon 14 skipping mutation with MET amplification xenografted in female athymic nude Foxn1nu mouse at 3 to 30 mg/kg, po bid administered for 14 days; type: functional, organism-based; conditions: dose 3-30 mg/kg, time 14.0 day
# [29] = test system: Hs746T; experiment: Antitumor activity against human Hs746T cells expressing MET exon 14 skipping mutation with MET amplification xenografted in female athymic nude Foxn1nu mouse at 100 mg/kg, po qd administered for 14 days; type: functional, organism-based; conditions: time 14.0 day
# [30] = Ratio of unbound drug concentration in female athymic nude Foxn1nu mouse brain to plasma at 100 mg/kg, po administered as single dose and measured after 24 hrs by LC/MS analysis; type: ADME, organism-based; conditions: read-out: K(p,uu,brain)
# [31] = biological target: Vascular endothelial growth factor receptor 2 (Homo sapiens, UniProt P35968); experiment: Inhibition of VEGFR2 in human Flp-In-293 cells by ELISA; type: toxicity, cell-based
# Chain of Vascular endothelial growth factor receptor 2 (P35968 whole entry): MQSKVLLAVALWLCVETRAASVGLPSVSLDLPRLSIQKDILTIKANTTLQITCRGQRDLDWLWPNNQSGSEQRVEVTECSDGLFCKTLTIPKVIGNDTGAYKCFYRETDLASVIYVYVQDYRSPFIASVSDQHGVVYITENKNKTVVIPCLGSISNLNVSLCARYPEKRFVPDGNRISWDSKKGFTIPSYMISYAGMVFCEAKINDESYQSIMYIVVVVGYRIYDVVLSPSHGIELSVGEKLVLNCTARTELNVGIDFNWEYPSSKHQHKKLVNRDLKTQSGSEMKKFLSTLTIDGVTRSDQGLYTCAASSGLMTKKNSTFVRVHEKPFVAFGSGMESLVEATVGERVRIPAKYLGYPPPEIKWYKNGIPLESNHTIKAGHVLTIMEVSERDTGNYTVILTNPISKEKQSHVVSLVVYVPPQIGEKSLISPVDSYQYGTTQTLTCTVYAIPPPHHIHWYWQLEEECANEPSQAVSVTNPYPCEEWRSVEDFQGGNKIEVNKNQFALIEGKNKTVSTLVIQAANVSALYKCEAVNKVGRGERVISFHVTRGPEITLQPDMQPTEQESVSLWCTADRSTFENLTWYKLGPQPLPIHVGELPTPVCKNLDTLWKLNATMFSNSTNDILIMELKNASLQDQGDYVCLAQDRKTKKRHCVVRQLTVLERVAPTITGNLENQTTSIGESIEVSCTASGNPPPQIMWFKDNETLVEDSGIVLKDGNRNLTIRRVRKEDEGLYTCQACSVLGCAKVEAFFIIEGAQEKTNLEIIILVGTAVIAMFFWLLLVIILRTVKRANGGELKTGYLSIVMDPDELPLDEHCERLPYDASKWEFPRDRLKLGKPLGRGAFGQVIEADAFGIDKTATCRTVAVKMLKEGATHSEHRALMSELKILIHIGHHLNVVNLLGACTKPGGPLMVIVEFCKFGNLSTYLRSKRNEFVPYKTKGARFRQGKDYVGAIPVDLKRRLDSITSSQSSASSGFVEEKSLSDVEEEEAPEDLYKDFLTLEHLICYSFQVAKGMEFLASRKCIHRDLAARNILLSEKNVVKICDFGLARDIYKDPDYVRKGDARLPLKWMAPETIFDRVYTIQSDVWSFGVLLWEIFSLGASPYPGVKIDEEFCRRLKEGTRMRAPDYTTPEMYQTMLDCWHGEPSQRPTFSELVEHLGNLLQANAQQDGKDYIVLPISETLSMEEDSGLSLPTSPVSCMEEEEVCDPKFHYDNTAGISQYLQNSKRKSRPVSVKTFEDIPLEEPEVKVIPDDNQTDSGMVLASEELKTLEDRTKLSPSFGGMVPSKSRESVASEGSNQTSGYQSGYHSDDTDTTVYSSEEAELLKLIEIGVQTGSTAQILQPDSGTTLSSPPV
compound,measurement,setting,value
Cn1ccc([C@H]2C[C@H](N(c3cc(F)c(NC(=O)c4ccnn(-c5ccc(F)cn5)c4=O)cc3F)c3nccn4nccc34)C2)n1,IC50,[1],0.006 µM
same,IC50,[2],0.006 µM
same,IC50,[3],0.09 µM
same,IC50,[4],0.015 µM
same,IC50,[5],0.005 µM
same,IC50,[6],0.023 µM
same,"Papp A→B at 2 h, 1 µM",[7],8 ×10⁻⁶ cm/s
same,CLhep predicted at 2 µM,[8],13 mL/min/kg
same,CLhep predicted at 2 µM,[9],35 mL/min/kg
same,"efflux ratio at 2 h, 1 µM",[10],1.1
same,inhibition,[11],> 50%
same,clearance,[12],9.5 mL/min/kg
same,hepatic extraction ratio at 24 h,[13],0.106
same,half-life,[14],1.9 h
same,Vd,[15],1.3 L/kg
same,Cmax,[16],10500 ng/mL
same,Cmax,[17],900 ng/mL
same,Tmax,[18],2 h
same,AUC(0-inf),[19],113 µg·h/mL
same,Kp uu at 24 h,[20],0.11
same,inhibition (INH),[21],Not Active
same,Activity,[22],<6%
same,inhibition,[23],Active
same,Activity,[24],Active
same,Activity,[25],Active
same,MST,[26],33 days
same,survival at 100 mg/kg,[27],100%
same,Activity,[28],Active
same,Activity,[29],Active
same,Kp uu at 24 h,[30],0.24
same,IC50,[31],> 5 µM
